Read-outs that look alike come from different tables or passages of the source.
Legend:
Format in all cases: cell-based
[1] = tested on: multiple myeloma cells (MM.1R); assay: In vitro potency, CellTiter-Glo growth inhibition, MM.1R; settings: 96 h, read-out: IC50 MM.1R
Experimental: (§1) In vitro potency was assessed on multiple cancer cell lines. All cell lines were authenticated by STR profiling at IDEXX Bioresearch and cultured for no more than 2 months after resuscitation. Cells cultured in log-phase growth were seeded for 24 hours in 96-well plates containing 150 μl RPMI 1640 supplemented with 20% FBS. Serial dilutions of antibody-drug conjugates in cell culture media were prepared at 4× working concentrations, and 50 μl of each dilution was added to the 96-well plates. Following addition of test articles, cells were incubated with test articles for 4 days at 37° C. After 96 hours, growth inhibition was assessed by CellTiter-Glo® (Promega, Madison, WI) and luminescence was measured on a plate reader. The IC50 value, determined in triplicate, is defined here as the concentration that results in 50% reduction in cell growth relative to untreated controls.
(§2) In the following Tables IC50 values for ADCs and campthothecin free drugs are given in ng/mL and […] concentrations, respectively. Cell viability was determined by CellTiter-Glo staining after 96 h exposure to ADC. ND=Not Determined. Ag1 is an antibody targeting a ubiquitous and readily internalizable antigen on cancer cells.

[2] = tested on: Hodgkin's lymphoma cells (L540cy); assay: In vitro potency, CellTiter-Glo growth inhibition, L540cy; settings: 96 h, read-out: IC50 L540cy
Experimental: as §1, §2

[3] = tested on: pancreatic cancer cells (BxPC3); assay: In vitro potency, CellTiter-Glo growth inhibition, BxPC3; settings: Homo sapiens, read-out: IC50 BxPC3
Experimental: as §1, §2

[4] = tested on: MDR(−) acute promyelocytic leukemia cells (HL-60); assay: In vitro potency, CellTiter-Glo growth inhibition, HL-60; settings: Homo sapiens, read-out: IC50 HL-60
Experimental: as §1, §2

[5] = tested on: acute myeloid leukemia cells (MOLM13); assay: In vitro potency, CellTiter-Glo growth inhibition, MOLM-13; settings: Homo sapiens, read-out: IC50 MOLM-13
Experimental: as §1, §2

[6] = tested on: MDR(+) acute promyelocytic leukemia cells (HL60/RV); assay: In vitro potency, CellTiter-Glo growth inhibition, HL60/RV; settings: Homo sapiens, read-out: IC50 HL60/RV
Experimental: as §1, §2

[7] = tested on: melanoma cells (SK-MEL-5); assay: In vitro potency, CellTiter-Glo growth inhibition, SK-MEL-5; settings: Homo sapiens, read-out: IC50 SK-MEL-5
Experimental: as §1, §2

[8] = tested on: renal carcinoma cells (786-O); assay: In vitro potency, CellTiter-Glo growth inhibition, 786-O; settings: Homo sapiens, read-out: IC50 786-O
Experimental: as §1, §2

[9] = tested on: B-lymphocyte cancer cells (SU-DHL-4); assay: In vitro potency, CellTiter-Glo growth inhibition, SU-DHL-4; settings: Homo sapiens, read-out: IC50 SU-DHL-4
Experimental: as §1, §2

[10] = tested on: Burkitt's lymphoma cells (Ramos); assay: In vitro potency, CellTiter-Glo growth inhibition, Ramos; settings: Homo sapiens, 96 h, read-out: IC50 Ramos
Experimental: as §1, §2

[11] = tested on: B-lymphocyte cancer cells (U266); assay: In vitro potency, CellTiter-Glo growth inhibition, U-266; settings: Homo sapiens, read-out: IC50 U-266
Experimental: as §1, §2

[12] = camptothecin free drugs, CellTiter-Glo
[13] = BXPC-3, camptothecin free drugs, 96 h, CellTiter-Glo
[14] = HL-60, camptothecin free drugs, 96 h, CellTiter-Glo
[15] = MOLM-13, camptothecin free drugs, 96 h, CellTiter-Glo
[16] = SK-MEL-5, camptothecin free drugs, 96 h, CellTiter-Glo
[17] = 786-0, camptothecin free drugs, 96 h, CellTiter-Glo
[18] = SU-DHL-4, camptothecin free drugs, 96 h, CellTiter-Glo
[19] = U-266, camptothecin free drugs, 96 h, CellTiter-Glo

Compound | IC50 [1] [nM] | IC50 [2] [nM] | IC50 ([3]; BXPC-3, 96 h) [nM] | IC50 ([4]; HL-60, 96 h) [nM] | IC50 ([5]; MOLM-13, 96 h) [nM] | IC50 ([6]; HL-60, 96 h) [nM] | IC50 ([7]; SK-MEL-5, 96 h) [nM] | IC50 ([8]; 786-0, 96 h) [nM] | IC50 ([9]; SU-DHL-4, 96 h) [nM] | IC50 [10] [nM] | IC50 ([11]; U-266, 96 h) [nM] | IC50 [1, 12] [nM] | IC50 [2, 12] [nM] | IC50 [3, 13] [nM] | IC50 [4, 14] [nM] | IC50 [5, 15] [nM] | IC50 [6, 14] [nM] | IC50 [7, 16] [nM] | IC50 [8, 17] [nM] | IC50 [9, 18] [nM] | other results
CC[C@@]1(O)C(=O)OCc2c1cc1n(c2=O)Cc2c-1nc1cc3c(cc1c2CNC(=O)[C@@H](N)CC(C)C)OCO3 [Compound 3] | 4 | 5 | 9 | 30 | 8 | 194 | 15 | > 1000 | 3 | 2 | 6 |  |  |  |  |  |  |  |  |  | 
CC[C@@]1(O)C(=O)OCc2c1cc1n(c2=O)Cc2c-1nc1cc3c(cc1c2CNC(=O)[C@H](C)N)OCO3 [Compound 3a] | 8 | 12 | 42 | 106 | 23 | 416 | 49 | 381 | 8 | 6 | 20 |  |  |  |  |  |  |  |  |  | 
CC[C@@]1(O)C(=O)OCc2c1cc1n(c2=O)Cc2c-1nc1cc3c(cc1c2CNC(=O)[C@@H](N)C(C)C)OCO3 [Compound 3b] | 4 | 6 | 12 | 23 | 5 | 857 | 14 | > 1000 | 2 | 1 | 8 |  |  |  |  |  |  |  |  |  | 
CC[C@@]1(O)C(=O)OCc2c1cc1n(c2=O)Cc2c-1nc1cc3c(cc1c2CNC(=O)C(C)(C)N)OCO3 [Compound 3d] | 3 | 4 | 10 | 25 | 5 | 840 | 14 | > 1000 | 3 | 1 | 4 |  |  |  |  |  |  |  |  |  | 
CC[C@@]1(O)C(=O)OCc2c1cc1n(c2=O)Cc2c-1nc1cc3c(cc1c2CNC(=O)[C@@H](N)CCSC)OCO3 [Compound 3e] | 6 | 13 | 19 | 92 | 16 | 370 | 27 | > 1000 | 5 | 4 | 12 |  |  |  |  |  |  |  |  |  | 
CC[C@@]1(O)C(=O)OCc2c1cc1n(c2=O)Cc2c-1nc1cc3c(cc1c2CNC(=O)[C@@H](N)Cc1ccccc1)OCO3 [Compound 3f] |  |  |  |  |  |  |  |  |  |  |  | 9 | 34 | 39 | 88 | 14 | > 1000 | 45 | > 1000 | 5 | IC50 [10, 12]: 4 nM; IC50 [11, 19]: 17 nM
CC[C@@]1(O)C(=O)OCc2c1cc1n(c2=O)Cc2c-1nc1cc3c(cc1c2CNC(=O)[C@@H](N)CCCNC(=N)N)OCO3 [Compound 3g] |  |  |  |  |  |  |  |  |  |  |  | 6 | 4 | 18 | 191 | 57 | 51 | 34 | > 1000 | 6 | IC50 [10, 12]: 6 nM; IC50 [11, 19]: 15 nM
CC[C@@]1(O)C(=O)OCc2c1cc1n(c2=O)Cc2c-1nc1cc3c(cc1c2CNC(=O)[C@@H](N)CCCCN)OCO3 [Compound 3h] | 13 | 7 | 42 | 552 | 97 | 128 | 60 | > 1000 | 14 | 12 | 36 |  |  |  |  |  |  |  |  |  | 
CC[C@@]1(O)C(=O)OCc2c1cc1n(c2=O)Cc2c-1nc1cc3c(cc1c2CNC(=O)[C@@H](N)Cc1c[nH]cn1)OCO3 [Compound 3i] |  |  |  |  |  |  |  |  |  |  |  | 147 | 321 | 331 | > 1000 | 996 | > 1000 | 414 | 22 | 255 | IC50 [10, 12]: 197 nM; IC50 [11, 19]: 452 nM
CC[C@@]1(O)C(=O)OCc2c1cc1n(c2=O)Cc2c-1nc1cc3c(cc1c2CNC(=O)[C@@H](N)CC(=O)O)OCO3 [Compound 3j] | 318 | 687 | 648 | > 1000 | 588 | > 1000 | 910 | 26 | 145 | 99 | 436 |  |  |  |  |  |  |  |  |  | 
CC[C@@]1(O)C(=O)OCc2c1cc1n(c2=O)Cc2c-1nc1cc3c(cc1c2CNC(=O)[C@@H](N)CCC(=O)O)OCO3 [Compound 3k] |  |  |  |  |  |  |  |  |  |  |  | 576 | 415 | > 1000 | > 1000 | > 1000 | > 1000 | > 1000 | 21 | 667 | IC50 [10, 12]: 451 nM; IC50 [11, 19]: > 1000 nM
CC[C@@]1(O)C(=O)OCc2c1cc1n(c2=O)Cc2c-1nc1cc3c(cc1c2CNC(=O)[C@@H](N)[C@@H](C)O)OCO3 [Compound 3l] | 22 | 27 | 64 | 298 | 45 | > 1000 | 109 | > 1000 | 16 | 8 | 57 |  |  |  |  |  |  |  |  |  | 
CC[C@@]1(O)C(=O)OCc2c1cc1n(c2=O)Cc2c-1nc1cc3c(cc1c2CNC(=O)[C@@H](N)CCC(N)=O)OCO3 [Compound 3m] | 30 | 76 | 160 | 823 | 125 | > 1000 | 208 | 51 | 71 | 34 | 86 |  |  |  |  |  |  |  |  |  | 
CC[C@@]1(O)C(=O)OCc2c1cc1n(c2=O)Cc2c-1nc1cc3c(cc1c2CNC(=O)[C@@H](N)Cc1c[nH]c2ccccc12)OCO3 [Compound 3n] |  |  |  |  |  |  |  |  |  |  |  | 74 | 185 | 143 | 526 | 80 | > 1000 | 330 | 83 | 27 | IC50 [10, 12]: 18 nM; IC50 [11, 19]: 62 nM

Reference: US20240277860A1, “CAMPTOTHECIN PEPTIDE CONJUGATES” (priority 2019, published 2024)
